Measurements as given in US12398092B2, “Method for inhibiting or disrupting biofilm formation, or reducing biofilm” (RAMOT AT TEL-AVIV UNIVERSITY LTD., priority 2015, dated 2025).

Assays:
Assay type in all cases: cell-based
E. faecalis ATCC 29212 = test: Biofilm inhibition, crystal violet staining (MBIC50); conditions: double-dilution method; Table 1; read-out: MBIC50, strain D
Protocol: (§1) Analysis of biofilm inhibition. The assay was performed as previously described (Joseph et al., 2016; Feldman et al., 2012) with minor modifications. […] Next, 100 μL of serial 1:2 dilutions of compounds in TSB+1% glucose (32, 16, 8, 4, 2, 1, and 0.5 μg/mL) were prepared in flat-bottomed 96-well microplates (Costar, Corning). Control wells with no compounds and wells without bacteria containing each tested concentration of the compounds (blanks) were also prepared. An equal volume (100 μL) of bacterial suspensions diluted 1:100 (OD600=0.01) or 1:10 (OD600=0.1) in TSB+1% glucose was added to each well. […] The wells were vigorously rinsed at least four times with doubly distilled water (DDW). Next, 0.4% crystal violet (200 μL) was added to each well. After 45 min, wells were vigorously rinsed three times with DDW to remove unbound dye. After adding 200 μL of 30% acetic acid to each well, the plate was shaken for 15 min to release the dye. Biofilm formation was quantified by measuring the difference between absorbance of untreated and treated bacterial samples for each tested concentration of the compounds and the absorbance of appropriate blank well at 600 nm (A600) using Tecan plate reader. The MBIC50 was defined as the lowest concentration at which at least 50% reduction in biofilm formation was measured compared to untreated cells. Each concentration of compound was tested in five replicates, and three to six independent experiments were performed.

S. aureus ATCC 29213 = test: as above; conditions: double-dilution method; Table 1; read-out: MBIC50, strain B
Protocol: as §1

S. epidermidis RP62A = test: as above; conditions: double-dilution method; Table 1; read-out: MBIC50, strain E
Protocol: as §1

S. mutans ATCC 700610 = test: as above; conditions: double-dilution method; Table 1; read-out: MBIC50, strain F
Protocol: as §1

[1] = system: S. aureus subsp. aureus Rosenbach ATCC 33592 (MRSA); test: as above; conditions: double-dilution method; Table 1; read-out: MBIC50, strain A
Protocol: as §1

S. aureus BAA/043 = test: as above; conditions: double-dilution method; Table 1; read-out: MBIC50, strain C
Protocol: as §1

mature biofilms = test: Biofilm eradication; conditions: mature 24-h-old biofilms
Protocol: Analysis of biofilm eradication. Biofilm eradication activity of the tested compounds determined against mature 24-h-old biofilms was performed as previously described (Pompilio et al., 2015). […] Untreated biofilm samples were used as control. Biofilms were quantified by measuring the absorbance at 600 nm. […] Concentrations were tested in five replicates, and three independent experiments were performed.

[2] = system: tested biofilm-forming Gram-positive pathogens; test: Biofilm inhibition, statements over all tested strains; conditions: highest concentration tested
Protocol: as §1, with “Each concentration of compound was tested in five replicates, and three to six independent experiments were performed.” left out

Compound | IC50 (E. faecalis ATCC 29212) [µM] | IC50 (S. aureus ATCC 29213) [µM] | IC50 (S. epidermidis RP62A) [µM] | IC50 (S. mutans ATCC 700610) [µM] | IC50 [1] [µM] | IC50 (S. aureus BAA/043) [µM] | Eradication of mature biofilms (mature biofilms) | Biofilm formation: no inhibition up to (concentration) [2] [µM]
deca-trimethylammonium pillar[5]arene [Compound 21] | 0.9 | 3.5 | 3.5 | 1.8 | 0.9 | 3.5 | did not eradicate mature biofilms | 
C[N+](C)(C)C.[Cl-] [TMA—Cl, tetramethylammonium chloride] | > 292 | > 292 | > 292 | > 292 | > 292 | > 292 |  | > 208
C[N+](C)(C)C.[Br-] [TMA—Br, tetramethylammonium bromide] | > 208 | > 208 | > 208 | > 208 | > 208 | > 208 |  | > 292
deca-N-methyl-imidazolium pillar[5]arene [Compound 22] | 0.4 | 1.6 | 3.2 | 6.4 | 0.8 | 1.6 |  | 
